{"source": "patent US20240065988A1", "about": "“COMBINED USE OF KETAMINE AND RETIGABINE (EZOGABINE) FOR THE TREATMENT OF PSYCHIATRIC DISORDERS” (Yeda Research and Development Co. Ltd., priority 2021, published 2024)", "key": {"[1]": {"test_system": "ventral hippocampus bulk tissue", "assay": "Bulk qPCR mRNA levels in brain punches (tissue homogenates) from the vHipp", "type": "in vivo, mouse", "settings": "ketamine 10 mg/kg, 2 days"}, "[2]": {"test_system": "treatment-resistant patients", "settings": "single sub-anesthetic dose; cited from earlier work"}, "[3]": {"test_system": "CD-1 mice injected with shRNA-Kcnq2 or shRNA-control AAV", "assay": "Forced swim test after AAV shRNA knockdown of Kcnq2 in the vHipp", "type": "in vivo, mouse"}, "mice (C57BL/6N)": {"test_system": "mice (C57BL/6N)", "assay": "Forced swim test (FST), pharmacological manipulation of KCNQ", "type": "in vivo, mouse", "method": "C57BL/6N and CD-1 (ICR) male mice aged 10 weeks old were used in these experiments. Ketamine hydrochloride (Ketaset, Zoetis, Germany) was diluted in 0.9% NaCl solution (saline) and administered i.p at 1, 5 or 10 mg/kg BW, depending on the experiment design. The KNCQ inhibitor, XE991 (Alomone labs; Cat #: X-100) was diluted in 5% DMSO and administered i.p at 1 or 3 mg/kg BW. The KCNQ activator, Retigabine (Alomone labs; Cat #: R-100), was diluted in 5% DMSO and administered i.p at 1 or 5 mg/kg BW. As control, mice were injected with a DMSO-saline solution (5% DMSO). For all experiments, mice were tested 30 minutes after injection in the FST or over a period of 36 hours after injection in the social boxes.\nPrevious studies in rodents have shown that KCNQ function can be regulated with highly-specific agonists and antagonists [V. Barrese et al., Annu Rev Pharmacol Toxicol (2018) 58: 625-648]. To further explore the KCNQ channel as a potential therapeutic target of ketamine, it was examined whether pharmacological inhibition of KCNQ alone or in combination with ketamine had any effects on behavior. To accomplish this, a new cohort of mice received two injections with a combination of drugs. […] To assess the effects of ketamine, XE991 (KCNQ inhibitor), and its combination, these mice were exposed to a FST (FIG. 7A, left). […] The inventors then sought to test whether the effects of ketamine could be mimicked, increased or amplified using retigabine, also known as ezogabine, a selective KCNQ (Kcnq2/3) channel activator. Similarly to the previous experiment, mice were treated with saline, (R,S)-ketamine (10 mg/kg BW), or ketamine in combination with two different concentrations of retigabine (1 and 5 mg/kg BW) (FIG. 7A, right).\nNext, it was examined whether retigabine could increase the sustained antidepressant-like effects produced by a single injection of ketamine in mice. Accordingly, a new cohort of mice were treated with a single dose of saline, ketamine, or ketamine in combination with retigabine (1 mg/kg) and antidepressant-like behaviors were assessed using the FST, 5—and 7-days post-injection (FIG. 8A). […] Next, as a potential therapeutic strategy for major depressive disorder (MDD), the synergistic effects of ketamine and retigabine was further investigated by testing whether or not retigabine can increase the antidepressant-like effects produced by ketamine in mice. […] Next, it was tested whether retigabine can produce similar synergistic effects in combination with traditional antidepressants. […] Lastly, using a new cohort of Nex-Cre-Ai9 mice, it was tested whether the adjunctive treatment of ketamine with retigabine, or escitalopram alone, could modify the expression of Kcnq2 mRNA in FACS sorted cells from the vHipp (FIG. 8F)."}, "CSDS mice (Nex-Cre-Ai9)": {"test_system": "CSDS mice (Nex-Cre-Ai9)", "assay": "Forced swim test in chronic social defeat stress (CSDS) mice", "settings": "ketamine 10 mg/kg i.p. vs saline, two days after treatment"}, "[4]": {"test_system": "KCNQ channel (KCNQ2/3, M-current)", "assay": "Ex vivo patch-clamp recording of IM current density in CA1 pyramidal neurons of acute vHipp slices", "parameters": "species or system mouse", "settings": "ketamine 10 mg/kg BW i.p., 36 hours before slice preparation vs saline"}, "mice": {"test_system": "mice", "assay": "Home cage activity (locomotion)", "type": "in vivo, mouse", "settings": "60-min period following treatment and 2 days post injection", "method": "The home cage activity was measured with the Mouse-E-Motion infrared-detecting devices (Infra-e-motion, Germany). Mice were single housed in fresh cages, and a metal food tray was employed to hold the devices in place. The base bedding was kept, but extra nesting materials that could conceal the animal were removed. The readout lasted 2 days (post-injection) during which time the animals were not disturbed. Locomotor activity was detected in 5-minute increments and averaged by the hour. The final analysis was applied to the first 60-minute period and the 48 hours (2 days), post injection."}}, "note": "“Also recorded” adds a separate entry of the source.", "data": [{"compound": "CNC1(c2ccccc2Cl)CCCCC1=O", "note": "(racemic) [ketamine, (R,S)-ketamine]", "values": [{"measurement": "bulk mRNA expression of the 8 genes, ketamine vs saline", "setting": "[1]", "value": "did not reach statistical significance"}, {"measurement": "duration of antidepressant response", "setting": "[2]", "value": "up to 7 days"}, {"measurement": "onset of antidepressant response", "setting": "[2]", "value": "within hours"}, {"measurement": "antidepressant-like effects of ketamine in the FST", "setting": "[3]; mice expressing the shRNA-Kcnq2 virus, ketamine 10 mg/kg BW", "value": "no longer detected"}, {"measurement": "immobility time during the FST", "setting": "[3]; shRNA-scramble control mice, ketamine 10 mg/kg BW vs saline", "value": "significant decrease in immobility time"}, {"measurement": "immobility time during the FST", "setting": "mice (C57BL/6N); (R,S)-ketamine 10 mg/kg/BW, dose series (FIG. 8E, FIG. 26A)", "value": "significant reduction of immobility time"}, {"measurement": "antidepressant-like effects in the FST", "setting": "mice (C57BL/6N); (R,S)-ketamine 1 and 5 mg/kg/BW", "value": "failed to produce antidepressant-like effects"}, {"measurement": "immobility time during the FST", "setting": "mice (C57BL/6N); ketamine 10 mg/kg BW alone vs saline (FIGS. 23A-B)", "value": "significant decrease in immobility time; also recorded: significant effect"}, {"measurement": "FST effect at day 7 post-injection", "setting": "mice (C57BL/6N); single dose of ketamine alone", "value": "disappeared by day 7"}, {"measurement": "duration of the FST effect post-injection", "setting": "mice (C57BL/6N); single dose of ketamine alone", "value": "up to five days"}, {"measurement": "immobility time during the FST, sustained effect", "setting": "mice (C57BL/6N); single dose of ketamine alone, several days post-injection (day 5)", "value": "significant decrease in immobility time"}, {"measurement": "immobility time during the FST", "setting": "CSDS mice (Nex-Cre-Ai9)", "value": "significant decrease in immobility time"}, {"measurement": "IM current density", "setting": "[4]", "value": "significant increase in IM current density"}, {"measurement": "locomotor activity (home cage), ketamine vs saline", "setting": "mice", "value": "no differences in total activity between groups; also recorded: no significant difference in the locomotion activity"}]}]}
